{"source": "patent US9789102B2", "about": "“H3 receptor antagonist for use in the treatment of alzheimer's disease” (SANOFI, priority 2012, dated 2017)", "key": {"[1]": {"test_system": "protein tau phosphorylation at AD-2 epitope", "experiment": "Western blot of tau phosphorylation at AD-2 epitope after two-week administration (Example 2)", "assay_type": "in vivo", "conditions": "THY-Tau22 mice", "experimental": "For immunoblot analysis, frozen mouse tissues (either hippocampus or cortex) were homogenized using a Precellys 24 tissue homogenizer in 350 μl RIPA buffer from Cell Signaling (20 mM Tris-HCl (pH 7.5), 150 mM NaCl, 1 mM Na2 EDTA, 1 mM EGTA, 1% NP-40, 1% sodium deoxycholate, 2.5 mM sodium pyrophosphate, 1 mM beta-glycerophosphate, 1 mM Na3VO4, 1 μg/ml leupeptin) to which proteases inhibitors (Sigma cocktail 1% v/v) and phosphatases inhibitors (okadaic acid 1 μM, sodium fluoride 100 mM) were added. After centrifugation, 16000×g 4° C. for 10 minutes, protein content in supernatants was determined with BioRad DC Protein Assay kit, using BSA as a standard. […] Tau protein was detected using the following mouse antibody: AD-2 1/20.000^e (Biorad, 56484) which recognizes tau protein phosphorylated on Ser396 and Ser404. […]\nFollowing incubation with primary antibodies, blots were rinsed in TBS Tween 0.1% and incubated for 1 hour at room temperature in an anti-mouse IgG horseradish peroxidase (HRP)-linked secondary antibody 1/10,000^e (GE healthcare, NA9310) diluted in 5% non-fat dry milk in TBS Tween 0.1%. […] Quantification of immunoreactive signal was performed using Multigauge V3.0 software (FUJIFILM). […]"}, "[2]": {"test_system": "neurofibrillary tangles (NFTs)", "experiment": "NFTs formation by Gallyas silver staining with quantitative image analysis after six months in food", "assay_type": "in vivo, THY-Tau22 mice", "description": "2-(Cyclohexylmethyl)-N-{2-[(2S)-1-methylpyrrolidin-2-yl]ethyl}-1,2,3,4-tetrahydroisoquinoline-7-sulfonamide difumarate monohydrate was administrated as a supplement in food at doses of 0.00034%, 0.0034% and 0.034% for six months in THY-Tau22 and wild type mice as follows: • Tg Veh (n=17) • Tg Active Ingredient—0.034% (n=17) • Tg Active Ingredient—0.0034% (n=17) • Tg Active Ingredient—0.00034% (n=17) • WT Veh (n=17) • WT Active Ingredient—0.034% (n=17) • WT Active Ingredient—0.0034% (n=17) • WT Active Ingredient—0.00034% (n=17) • WT groups treated with Active Ingredient are not used in the biochemical and histological studies.\nAfter mice were decapitated, brains were removed and one hemibrain (used for histopathological studies) was immersion-postfixed for seven days at 4° C. with 4% formaldehyde (Carlo Erba/code 415691). The other hemibrain was prepared for biochemical quantitative measurements.\nPost-fixed hemibrains were incubated in phosphate-buffered saline (PBS, P 3813-10PAK, Sigma), transferred to a 20% sucrose solution (code 27480.294—Prolabo) for 48 hours at 4° C. to ensure good cryopreservation of tissues during subsequent freezing. For freezing, hemibrains were immersed for one minute in isopentane solution (Ref. No. 24872-323—Prolabo) cooled with dry ice to between −25° C. and −30° C. and then stored at −25° C.\nThe entire hemibrains were cut with a cryostat (Microm, HM560). Serial sagittal brain tissue sections were collected onto Superfrost plus microscope glass slides (VWR) and then stored at −20° C. (sections of 20 μm of thickness), or placed in PBS-sodium azide 0.1% (S-2002, Sigma) containing wells to avoid any contamination and stored at 4° C. (sections of 30 μm of thickness).\nNFTs are a major defining neuropathological feature of tau pathology in AD. They consist of bundles of paired helical filaments and straight filaments and their main constituent is the hyperphosphorylated microtubule-associated protein tau. Gallyas staining is generally used to stain neurofibrillary pathology (Sun A. et al., J. Histochem Cytochem, 2002, 50, 4, pp. 463-472).\nA series of 20 μm hemibrain sections (directly mounted on slides) per mice was used for Gallyas staining (Braak and Braak, 1991, Brain Pathology, 1, pp. 213-216). The detailed protocol is as follows:\nThe following reagents are used: periodic acid (Sigma Ref. No. P 7875); sodium hydroxide (Prolabo Ref. No. 1737-1000); potassium iodide (Merck Ref. No. 1.05043.1000); silver nitrate (Sigma Ref. No. S.8157); 100% ascetic acid (Prolabo Ref. No. 20 104.298); sodium carbonate, anhydrous (Merck Ref. No. 1.06392-0500); ammonium nitrate (Prolabo Ref. No. 21280-293); silicotungstic acid (Sigma Ref. No. T 2786); 40% formaldehyde (Carlo Erba Ref. No. 415661); sodium thiosulfate (Sigma Ref. No. 21724-500 g).\nA first stock solution (No. 1) was prepared by dissolving 50 g of anhydrous sodium carbonate in 1000 ml of deionized water. A second stock solution (No. II) was prepared by dissolving 2 g of ammonium nitrate, 2 g of silver nitrate, and 10 g of silicotungstic acid in 1000 ml of deionized water. A third stock solution (No. III) was prepared by dissolving 2 g of ammonium nitrate, 2 g of silver nitrate, 10 g of silicotungstic acid, and 7.3 ml of commercial 37% formaldehyde solution in 1000 ml of deionized water. The stock solutions are stable and can be stored in opaque containers.\nEach of the following steps in the method are carried out with stirring. • 1. Pretreatment: The sections on slides were immersed in a solution of 5% periodic acid in water for 5 minutes, and then rinsed twice for 5 minutes in deionized water. • 2. Argentation: The silver iodide solution is freshly prepared by dissolving 4 g of sodium hydroxide in 50 ml of distilled water and adding 10 g of potassium iodide, which is mixed and allowed to dissolve completely. 3.5 ml of a solution of 1% silver nitrate in water is added while stirring. […]"}}, "data": [{"smiles": "CN1CCC[C@H]1CCNS(=O)(=O)c1ccc2c(c1)CN(CC1CCCCC1)CC2", "note": "[2-(cyclohexylmethyl)-N-{2-[(2S)-1-methylpyrrolidin-2-yl]ethyl}-1,2,3,4-tetrahydroisoquinoline-7-sulfonamide difumarate monohydrate]", "values": [{"measurement": "effect on protein tau phosphorylation at AD-2 epitope in the hippocampus", "setting": "[1]; 0.002% in drinking water", "result": "did not elicit any effect"}, {"measurement": "effect on protein tau phosphorylation at AD-2 epitope in the hippocampus", "setting": "[1]; 0.02% in drinking water", "result": "did not elicit any effect"}, {"measurement": "protective effect against pathological neurons (tangles number), all analyzed brain ROIs", "setting": "[2]; 0.00034% in food", "result": "no protective effect"}, {"measurement": "NFTs formation in CA1 hippocampal subarea, vs vehicle", "setting": "[2]; 0.0034% in food, n=9", "result": "statistical significant decrease"}, {"measurement": "NFTs formation in cortex, vs vehicle", "setting": "[2]; 0.0034% in food, n=9", "result": "statistical significant decrease"}, {"measurement": "decrease in the number of tangles, CA1 hippocampal subarea", "setting": "[2]; 0.0034% in food, significant", "result": "−25", "unit": "%"}, {"measurement": "decrease of the number of pathological neurons (NFTs, Gallyas), cortex", "setting": "[2]; 0.0034% in food, significant", "result": "−48", "unit": "%"}, {"measurement": "decrease in NFTs, amygdala", "setting": "[2]; 0.0034% in food, statistically non-significant", "result": "−19", "unit": "%"}, {"measurement": "NFTs formation in CA1 hippocampal subarea, vs vehicle", "setting": "[2]; 0.034% in food, n=9", "result": "statistical significant decrease"}, {"measurement": "NFTs formation in amygdala, vs vehicle", "setting": "[2]; 0.034% in food, n=9", "result": "statistical significant decrease"}, {"measurement": "NFTs formation in cortex, vs vehicle", "setting": "[2]; 0.034% in food, n=9", "result": "statistical significant decrease"}, {"measurement": "decrease in NFTs, amygdala", "setting": "[2]; 0.034% in food, significant", "result": "−31", "unit": "%"}, {"measurement": "decrease in the number of tangles, CA1 hippocampal subarea", "setting": "[2]; 0.034% in food, significant", "result": "−22", "unit": "%"}, {"measurement": "decrease of the number of pathological neurons (NFTs, Gallyas), cortex", "setting": "[2]; 0.034% in food, significant", "result": "−41", "unit": "%"}]}]}
